Reference: ChEMBL document CHEMBL3045898, “Antioxidant phenolic compounds and flavonoids of Mitragyna rotundifolia (Roxb.) Kuntze in vitro” (Med Chem Res, 2010)
Converted amounts (≈) assume the structure as drawn.

Columns and labels:
[1] = Antioxidant activity assessed as inhibition of ABTS radical production after 10 min by spectrophotometric analysis; format: functional
[2] = tested on: Radical scavenging activity; assay: Antioxidant activity assessed as inhibition of DPPH radical production after 30 min by spectrophotometric analysis; format: functional

Compound | IC50 [1] [µg/mL] | IC50 [2]
COc1c(O)cc([C@H]2Oc3cc(O)cc(O)c3C[C@@H]2O)cc1O [4'-O-METHYL-GALLOCATECHIN] | 0.78 (≈ 2.44 µM) | 2.57 µg/mL (≈ 8.02 µM)
Cc1cc(C(C)(C)C)c(O)c(C(C)(C)C)c1 [BUTYLATED HYDROXYTOLUENE] | 4.555 (≈ 20.7 µM) | 18.79 µg/mL (≈ 85.3 µM)
O=C(O)/C=C/c1ccc(O)c(O)c1 [CAFFEIC ACID] | 1.54 (≈ 8.55 µM) | 1.8 µg/mL (≈ 9.99 µM)
Oc1cc(O)c2c(c1)O[C@H](c1ccc(O)c(O)c1)[C@@H](O)C2 [CIANIDANOL] | 0.56 (≈ 1.93 µM) | 1.4 µg/mL (≈ 4.82 µM)
O=C(O)c1ccc(O)c(O)c1 [PROTOCATECHUIC ACID] | 2.47 (≈ 16 µM) | ND(Insoluble)

Continued, values first:

IC50 [1] [µg/mL] | IC50 [2] | Compound
1.83 (≈ 6.3 µM) | 1.61 µg/mL (≈ 5.55 µM) | Oc1cc(O)c2c(c1)O[C@H](c1ccc(O)c(O)c1)[C@H](O)C2 [(-)-EPICATECHIN]
0.885 (≈ 4.17 µM) | 0.94 µg/mL (≈ 4.43 µM) | CCCOC(=O)c1cc(O)c(O)c(O)c1 [PROPYL GALLATE]
1.03 (≈ 3.6 µM) | 2.51 µg/mL (≈ 8.77 µM) | O=c1c(O)c(-c2ccc(O)cc2)oc2cc(O)cc(O)c12 [KAEMPFEROL]
